# Test results published in patent US20240285552A1 (priority 2020, published 2024).
# Read-outs that look alike come from different tables or passages of the source. Residues, ends and D or L forms follow the SMILES beside them. *: point of attachment. Cbz = O=C(OCc1ccccc1)*; CH2F = FC*
# What was measured:
# [1] = tested on: SARS CoV-2 nanoluciferase reporter virus; assay: microbe, parasite or virus in culture; type: cell-based; settings: for Concentration at Maximum % Inhibition / Maximum Inhibition: A549-ACE2, NLRV; for IC50: read-out: IC50, viral replication, Nanoluciferase Reporter Virus Assay
# in vitro [2] = settings: African green monkey
# SARS-CoV-2 USA_WA1/2020 = assay: microbe, parasite or virus in culture; type: cell-based
# [3] = molecular target: T1, rhACE2 and SARS-CoV-2 Spike (RBD) protein interaction (Homo sapiens, UniProt Q9BYF1); assay: Spike (RBD)-ACE2 binding assay (ELISA); set-up: species or system human; SARS-CoV-2; settings: bell shaped dose-response curve; CLQ series; read-out: IC50_2, ACE2-Spike (RBD) protein interaction
# T1 construct: purchased RayBiotech CoV-SACE2-1
# T1 sequence (Q9BYF1 18-740): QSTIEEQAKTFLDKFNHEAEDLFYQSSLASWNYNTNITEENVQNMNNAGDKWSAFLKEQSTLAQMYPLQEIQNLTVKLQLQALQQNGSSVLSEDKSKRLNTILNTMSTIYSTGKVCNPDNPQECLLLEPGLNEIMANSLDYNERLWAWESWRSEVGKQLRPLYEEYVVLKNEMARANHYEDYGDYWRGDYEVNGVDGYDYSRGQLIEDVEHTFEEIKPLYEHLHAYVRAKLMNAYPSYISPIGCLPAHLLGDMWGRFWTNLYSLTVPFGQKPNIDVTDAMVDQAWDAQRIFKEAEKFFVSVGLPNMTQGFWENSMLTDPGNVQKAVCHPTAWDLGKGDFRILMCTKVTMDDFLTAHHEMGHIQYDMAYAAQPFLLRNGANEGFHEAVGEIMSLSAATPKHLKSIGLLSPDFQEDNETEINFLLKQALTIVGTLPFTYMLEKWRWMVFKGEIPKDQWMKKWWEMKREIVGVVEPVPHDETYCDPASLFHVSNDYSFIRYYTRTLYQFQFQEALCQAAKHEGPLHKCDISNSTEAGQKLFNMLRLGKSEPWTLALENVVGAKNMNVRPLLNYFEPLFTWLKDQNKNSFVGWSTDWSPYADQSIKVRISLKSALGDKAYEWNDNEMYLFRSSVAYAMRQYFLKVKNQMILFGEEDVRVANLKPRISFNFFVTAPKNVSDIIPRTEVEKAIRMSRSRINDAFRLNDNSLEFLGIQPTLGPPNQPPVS
# [4] = molecular target: T2, recombinant human ACE2 (rhACE2) (Homo sapiens, UniProt Q9BYF1); assay: ACE2 inhibitor screening assay (exopeptidase activity), CLQ and analogues, ZnCl2; type: biochemical
# T2 construct: purchased BPS Bioscience 79923
# T2 sequence (Q9BYF1 18-805): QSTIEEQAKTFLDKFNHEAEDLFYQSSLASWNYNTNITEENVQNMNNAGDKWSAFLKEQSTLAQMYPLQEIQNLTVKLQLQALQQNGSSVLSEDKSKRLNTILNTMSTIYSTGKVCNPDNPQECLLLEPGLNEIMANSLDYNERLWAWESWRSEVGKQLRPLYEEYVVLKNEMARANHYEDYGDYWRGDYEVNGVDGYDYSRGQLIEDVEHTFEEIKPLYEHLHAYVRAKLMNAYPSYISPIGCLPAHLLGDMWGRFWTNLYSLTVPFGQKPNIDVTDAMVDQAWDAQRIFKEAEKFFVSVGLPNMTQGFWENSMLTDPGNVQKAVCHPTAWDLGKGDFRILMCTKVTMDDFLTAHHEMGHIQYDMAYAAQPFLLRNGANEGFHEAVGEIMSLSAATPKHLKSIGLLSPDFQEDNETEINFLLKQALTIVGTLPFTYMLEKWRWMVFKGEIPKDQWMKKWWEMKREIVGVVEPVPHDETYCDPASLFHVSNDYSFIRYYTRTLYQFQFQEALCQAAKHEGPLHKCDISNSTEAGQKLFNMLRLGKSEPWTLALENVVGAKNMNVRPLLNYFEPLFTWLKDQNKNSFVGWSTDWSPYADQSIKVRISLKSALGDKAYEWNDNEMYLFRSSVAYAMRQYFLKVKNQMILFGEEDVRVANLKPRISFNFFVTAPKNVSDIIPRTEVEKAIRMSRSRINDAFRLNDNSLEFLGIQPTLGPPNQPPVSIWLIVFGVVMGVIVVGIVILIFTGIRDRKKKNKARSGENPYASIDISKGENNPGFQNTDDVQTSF
# Method: An ACE2 inhibitor screening assay kit with fluorogenic substrate (Catalogue #79923) was purchased from BPS Bioscience (San Diego, CA) and adapted to measure the exopeptidase activity of ACE2 in the presence and absence of inhibitors. The fluorescence assay was performed using a black flat-bottom 96-well plate with a final reaction volume of 50 μL following the manufacturer's instructions. 10 mM stock solutions of the compounds were prepared in Dimethyl sulfoxide (DMSO). Next, the compounds were serially diluted in DMSO as follows: 100 μM, 50 μM, 10 μM, 1 μM, 0.5 μM, and 0.1 μM for CLQ and CLBQ14 as well as 10 μM and 1 μM for CLCQ. All experiments were performed in triplicates. Each plate contained a positive control of enzyme-treated with vehicle alone (2% DMSO) and a blank control with no enzyme. Briefly, each reaction contained 24 μL of purified recombinant human ACE2 protein (0.42 ng/L) in ACE2 buffer, 1 μL of compound at serially diluted concentrations, and 25 μL ACE2 fluorogenic substrate. The total reaction volume was 50 μL. […] Thereafter, the fluorescence intensities (λExcitation=535 nm, λEmission=595 nm) were measured using a Beckman Coulter DTX880 multimode plate reader. […]
# The effects of CLQ, CLBQ14, and CLCQ on the exopeptidase activity of rhACE2 were determined using a fluorometric assay provided by BPS Bioscience and adapted accordingly. […]
# Vero E6 cells = settings: Example C (Table 4); for Conc. at Max. % Viability / Conc. at Min. % Viability / Max. Viability / Min. Viability: Vero E6
# in vitro [5] = settings: human
# [6] = 50% cytotoxic concentration (CC50), Vero E6, 72 hours, Examples A and B, highest concentration 30 μM
# [7] = Severe acute respiratory syndrome coronavirus 2, Vero C1008, 72 h, read-out: IC50 against SARS-CoV-2 infection induced CPE
# [8] = Severe acute respiratory syndrome coronavirus 2, Vero C1008, Vero E6, Example B, highest concentration tested 30 μM, read-out: IC50 against SARS-CoV-2 infection induced CPE
# [9] = Cytotoxicity CC50, Vero E6, 72 hours, Example C (Table 4)
# [10] = Example C (Table 3), read-out: IC 50 against SARS-COV-2 Induced Cytopathic Effect in Vero E6 Cells
# [11] = Severe acute respiratory syndrome coronavirus 2, Vero C1008, Example C (Table 3), read-out: IC 50 against SARS-COV-2 Induced Cytopathic Effect in Vero E6 Cells
# [12] = Severe acute respiratory syndrome coronavirus 2, A549, 72 h
# [13] = Cytotoxicity CC50, A549 cells, 72 hours
SMILES,Concentration at Maximum % Inhibition [1],Maximum Inhibition [1] [%],IC50 (SARS-CoV-2 USA_WA1/2020; [7]) [µM],IC50 (SARS-CoV-2 USA_WA1/2020; [8]) [µM],Concentration at Maximum % Inhibition (SARS-CoV-2 USA_WA1/2020; Example C (Table 3)) [µM],Maximum Inhibition (SARS-CoV-2 USA_WA1/2020; Example C (Table 3)) [%],Conc. at Max. % Viability (Vero E6 cells) [nM],Conc. at Min. % Viability (Vero E6 cells) [nM],Max. Viability (Vero E6 cells) [%],Min. Viability (Vero E6 cells) [%],Conc. at Max. % Viability (A549 cells) [nM],Conc. at Min. % Viability (A549 cells) [nM],Max. Viability (A549 cells) [%],Min. Viability (A549 cells) [%],other results
CC(C)(C)[C@H](NC(=O)C(F)(F)F)C(=O)N1C[C@H]2[C@@H]([C@H]1C(=O)N[C@H](C#N)C[C@@H]1CCNC1=O)C2(C)C [PF-07321332],0.5 µM,99.67,,,,,,,,,,,,,IC50 ([1]; listed as Paxlovid): 0.05 µM; IC50 [1]: 0.057 µM
"Oc1c(Br)cc(Cl)c2cccnc12 [CLBQ14, 7-bromo-5-chloro-8-hydroxyquinoline]",,,14.7,,,,,,,,,,,,"CC50 at 72 h (in vitro [2]; [6]): > 30 µM; inhibition at 30 µM (SARS-CoV-2 USA_WA1/2020; Severe acute respiratory syndrome coronavirus 2, Vero C1008, at 30 μM, Example A, read-out: maximum inhibition of CPE): ~103%"
CCN(CCO)CCCC(C)Nc1ccnc2cc(Cl)ccc12 (centres unmarked) [Hydroxychloroquine],,,5.04,5.16,,,,,,,,,,,
"Oc1c(I)cc(Cl)c2cccnc12 [CLQ, 5-chloro-7-iodo-8-quinolinol]",,,12.6,,,,,,,,,,,,"IC50 [3]: 18.2 µM; IC50 ([4]; 2.5 hours, room temperature, read-out: IC50 against rhACE2 exopeptidase activity): 5.36 µM; CC50 at 72 h (in vitro [2]; [6]): > 30 µM"
CCOC(=O)[C@H]1O[C@@H]1C(=O)N[C@@H](CC(C)C)C(=O)NCCC(C)C [Aloxistatin],,,16.7,21.8,15,130.81,234,117,106.71,93.02,,,,,CC50 at 72 h (in vitro [2]; [9]): > 30 µM; IC50 (SARS-CoV-2 USA_WA1/2020; [10]): 4.59 µM; IC50 (SARS-CoV-2 USA_WA1/2020; [11]): 4.58 µM
"[Cl-].[Cl-].[Zn+2] [ZnCl2, Zinc Chloride]",,,,,,,,,,,,,,,effect on rhACE2 exopeptidase activity ([4]; 100 μM to 100 nM): increasing exopeptidase activity
"Oc1c(Cl)cc(Cl)c2cccnc12 [CLCQ, 5,7-Dichloro-8-hydroxyquinoline]",,,16.3,,,,,,,,,,,,CC50 (in vitro [2]; [6]): > 30 µM
CCN(CC)CCCC(C)Nc1ccnc2cc(Cl)ccc12 (centres unmarked) [Chloroquine],15 µM,99.53,1.1,3.56,30,114.51,469,3750,99.66,90.50,23,30000,117.48,9.11,"IC50 [1, 12]: 3.3 µM; CC50 at 72 h (in vitro [5]): 18.4 µM; CC50 at 72 h (in vitro [2]): > 30 µM; IC50 (SARS-CoV-2 USA_WA1/2020; [11]): 8.85 µM"
CC(C)C[C@H](NC(=O)OCc1ccccc1)C(=O)N[C@@H](CC(C)C)C(=O)N[C@@H](Cc1ccc(O)cc1)C(=O)CF [Calpain Inhibitor IV] (Cbz-Leu-Leu-Tyr-CH2F),.0028 µM,99.56,,,7.17,115.91,56,28,106.84,99.77,90,5.6,94.37,77.49,"IC50 [1]: 0.0005 µM; IC50 (SARS-CoV-2 USA_WA1/2020; Vero E6, Example B, highest concentration tested 30 μM, read-out: IC50 against SARS-CoV-2 infection induced CPE): 0.29 µM; IC50 (SARS-CoV-2 USA_WA1/2020; read-out: IC 50 against SARS-COV-2 Induced Cytopathic Effect in Vero E6 Cells): 3.73 µM; IC50 (SARS-CoV-2 USA_WA1/2020; read-out: IC50 against SARS-CoV-2 infection induced CPE): 0.41 µM; CC50 (A549 cells; read-out: Cytotoxicity CC50, 72 hours): > 0.179 µM; CC50 (Vero E6 cells; read-out: Cytotoxicity CC50, Vero E6, 72 hours): > 7.17 µM"
CC(C)C(=O)OC[C@H]1O[C@@H](n2ccc(NO)nc2=O)[C@H](O)[C@@H]1O [Molnupiravir],10 µM,91.12,,,,,,,,,2,14,98.56,88.88,"IC50 [1, 12]: 4.2 µM; CC50 at 72 h (in vitro [5]; [13]): > 10 µM"
CCC(CC)COC(=O)[C@H](C)N[P@](=O)(OC[C@H]1O[C@@](C#N)(c2ccc3c(N)ncnn23)[C@H](O)[C@@H]1O)Oc1ccccc1 [Remdesivir],1.5 µM,99.58,4.42,8.54,30,120.89,3750,117,100.73,91.15,6,94,95.46,84.65,CC50 (in vitro [5]; [13]): > 3 µM; CC50 (in vitro [2]; [9]): > 30 µM; IC50 (SARS-CoV-2 USA_WA1/2020; [10]): 16.1 µM; IC50 (SARS-CoV-2 USA_WA1/2020; [11]): 16 µM
